In patent US20260355196A1, “INHIBITORS AND DEGRADERS OF PIP4K PROTEIN” (Larkspur Biosciences, Inc., priority 2023, published 2026):

Molecular target: T1, PIP4K2C (Homo sapiens, UniProt Q8TBX8)
T1 sequence (Q8TBX8 1-421): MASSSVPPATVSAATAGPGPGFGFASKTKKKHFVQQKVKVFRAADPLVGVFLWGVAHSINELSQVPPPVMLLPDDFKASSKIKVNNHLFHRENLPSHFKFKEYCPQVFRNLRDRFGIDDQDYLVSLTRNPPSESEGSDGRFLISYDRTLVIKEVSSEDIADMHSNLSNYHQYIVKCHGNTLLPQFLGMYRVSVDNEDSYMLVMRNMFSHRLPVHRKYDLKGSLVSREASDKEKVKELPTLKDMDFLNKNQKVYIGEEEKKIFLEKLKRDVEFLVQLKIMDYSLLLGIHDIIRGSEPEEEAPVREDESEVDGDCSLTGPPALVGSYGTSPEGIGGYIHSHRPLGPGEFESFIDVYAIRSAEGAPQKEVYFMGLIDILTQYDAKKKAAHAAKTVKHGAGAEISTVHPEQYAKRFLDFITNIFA
Assay: HiBiT PIP4K2C degradation assay in MOLT-4 cells (endogenous PIP4K2C C-terminally tagged with HiBiT)
Type: cell-based
Design: untagged in primary human PBMCs and monocyte-derived dendritic cells
Conditions: 6 hours of incubation time, rather than 24 hours; MOLT-4, top concentration 10 micromolar; read-out: HiBIT-degradation MOLT4 PIP4k2C DC50 (6 hours, marked *)
In short: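 Luminescent HiBiT lytic readout of residual PIP4K2C-HiBiT (CRISPR knock-in, MOLT-4, phenol red-free RPMI-1640 + 10% FBS). Cells exposed 6 or 24 h at 37 C to compound, top 10 micromolar, 3-fold, 10 points, duplicate. Hill fit (Levenberg-Marquardt) gives DC50.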

SMILES	DC50
O=C1CCC(Nc2ccc(C3CCN([C@H]4CC[C@H](NC(=O)[C@H]5CC[C@H](Nc6ncc(F)c(-c7cccc(N8CCCCC8)c7)n6)CC5)CC4)CC3)c(F)c2)C(=O)N1 (stereo partly drawn) [Compound 515, trans-N-(trans-4-(4-(4-((2,6-dioxopiperidin-3-yl)amino)-2-fluorophenyl)piperidin-1-yl)cyclohexyl)-4-((5-fluoro-4-(3-(piperidin-1-yl)phenyl)pyrimidin-2-yl)amino)cyclohexane-1-carboxamide]	< 500 nM
O=C1CCC(Nc2ccc(N3CCC(N4CCC(C(=O)N[C@H]5CC[C@H](Nc6ncc(F)c(-c7cccc(N8CCCCC8)c7)n6)CC5)CC4)CC3)c(F)c2)C(=O)N1 (stereo partly drawn) [Compound 516, trans-1′-(4-((2,6-dioxopiperidin-3-yl)amino)-2-fluorophenyl)-N-(4-((5-fluoro-4-(3-(piperidin-1-yl)phenyl)pyrimidin-2-yl)amino)cyclohexyl)-[1,4′-bipiperidine]-4-carboxamide]	< 500 nM
O=C1CC[C@H](Nc2ccc(N3CCN([C@H]4CC[C@H](C(=O)N[C@H]5CC[C@H](Nc6ncc(F)c(-c7cccc(-c8ccc[nH]c8=O)c7)n6)CC5)CC4)CC3)c(F)c2)C(=O)N1 [Compound 517, trans-4-(4-(4-(((S)-2,6-dioxopiperidin-3-yl)amino)-2-fluorophenyl)piperazin-1-yl)-N-((trans)-4-((5-fluoro-4-(3-(2-oxo-1,2-dihydropyridin-3-yl)phenyl)pyrimidin-2-yl)amino)cyclohexyl)cyclohexane-1-carboxamide]	< 500 nM
O=C1CCC(Nc2ccc(C3CCN(CC4(O)CCN(C(=O)[C@H]5CC[C@H](Nc6ncc(F)c(-c7cccc(C8CC8)c7)n6)CC5)CC4)CC3)c(F)c2)C(=O)N1 (stereo partly drawn) [Compound 518, trans-3-((4-(1-((1-(4-((4-(3-cyclopropylphenyl)-5-fluoropyrimidin-2-yl)amino)cyclohexane-1-carbonyl)-4-hydroxypiperidin-4-yl)methyl)piperidin-4-yl)-3-fluorophenyl)amino)piperidine-2,6-dione]	< 500 nM
O=C1CC[C@@H](Nc2ccc(C3CCN([C@H]4CC[C@H](NC(=O)[C@H]5CC[C@H](Nc6ncc(F)c(-c7cccc(N8CCCOC8=O)n7)n6)CC5)CC4)CC3)c(F)c2)C(=O)N1 [Compound 519, (trans)-N-((trans)-4-(4-(4-((2,6-dioxopiperidin-3-yl)amino)-2-fluorophenyl)piperidin-1-yl)cyclohexyl)-4-((5-fluoro-4-(6-(2-oxo-1,3-oxazinan-3-yl)pyridin-2-yl)pyrimidin-2-yl)amino)cyclohexane-1-carboxamide]	< 500 nM
O=C1CCC(Nc2ccc(C3CCN([C@H]4CC[C@H](NC(=O)[C@H]5CC[C@H](Nc6ncc(F)c(-c7cccc(-n8ccccc8=O)n7)n6)CC5)CC4)CC3)c(F)c2)C(=O)N1 (stereo partly drawn) [Compound 520, trans-N-(trans-4-(4-(4-((2,6-dioxopiperidin-3-yl)amino)-2-fluorophenyl)piperidin-1-yl)cyclohexyl)-4-((5-fluoro-4-(2-oxo-2H-[1,2′-bipyridin]-6′-yl)pyrimidin-2-yl)amino)cyclohexane-1-carboxamide]	< 500 nM

Further lines, results first:

DC50	SMILES
< 500 nM	O=C1CCC(Nc2ccc(N3CCC(N4CCC(NC(=O)[C@H]5CC[C@H](Nc6ncc(F)c(-c7cccc(N8CCCCC8=O)c7)n6)CC5)CC4)CC3)c(F)c2)C(=O)N1 (stereo partly drawn) [Compound 521, trans-N-(1′-(4-((2,6-dioxopiperidin-3-yl)amino)-2-fluorophenyl)-[1,4′-bipiperidin]-4-yl)-4-((5-fluoro-4-(3-(2-oxopiperidin-1-yl)phenyl)pyrimidin-2-yl)amino)cyclohexane-1-carboxamide]
< 500 nM	O=C1CCC(Nc2ccc(N3CCC(N4CCC(NC(=O)[C@H]5CC[C@H](Nc6ncc(F)c(-c7cccc(N8CCCOC8=O)c7)n6)CC5)CC4)CC3)c(F)c2)C(=O)N1 (stereo partly drawn) [Compound 522, trans-N-(1′-(4-((2,6-dioxopiperidin-3-yl)amino)-2-fluorophenyl)-[1,4′-bipiperidin]-4-yl)-4-((5-fluoro-4-(3-(2-oxo-1,3-oxazinan-3-yl)phenyl)pyrimidin-2-yl)amino)cyclohexane-1-carboxamide]
< 500 nM	O=C1CCC(Nc2ccc(N3CCC(N4CCC(C(=O)N[C@H]5CC[C@H](Nc6ncc(F)c(-c7cccc(N8CCCCC8)c7)n6)CC5)CC4)C(F)C3)c(F)c2)C(=O)N1 (some centres unmarked) [Compound 523, 1′-(4-((2,6-dioxopiperidin-3-yl)amino)-2-fluorophenyl)-3′-fluoro-N-((1r,4r)-4-((5-fluoro-4-(3-(piperidin-1-yl)phenyl)pyrimidin-2-yl)amino)cyclohexyl)-[1,4′-bipiperidine]-4-carboxamide]
< 500 nM	O=C1CCC(Nc2ccc(N3CCC(N4CCC(C(=O)N[C@H]5CC[C@H](Nc6ncc(F)c(-c7cccc(N8CCCCC8=O)c7)n6)CC5)CC4)C(F)C3)c(F)c2)C(=O)N1 (some centres unmarked) [Compound 524, 1′-(4-((2,6-dioxopiperidin-3-yl)amino)-2-fluorophenyl)-3′-fluoro-N-((1r,4r)-4-((5-fluoro-4-(3-(2-oxopiperidin-1-yl)phenyl)pyrimidin-2-yl)amino)cyclohexyl)-[1,4′-bipiperidine]-4-carboxamide]
< 500 nM	O=C1CCC(Nc2ccc(N3CCC(N4CCC(C(=O)N[C@H]5CC[C@H](Nc6ncc(F)c(-c7cccc(N8CCCOC8=O)c7)n6)CC5)CC4)C(F)C3)c(F)c2)C(=O)N1 (some centres unmarked) [Compound 525, 1′-(4-((2,6-dioxopiperidin-3-yl)amino)-2-fluorophenyl)-3′-fluoro-N-((1r,4r)-4-((5-fluoro-4-(3-(2-oxo-1,3-oxazinan-3-yl)phenyl)pyrimidin-2-yl)amino)cyclohexyl)-[1,4′-bipiperidine]-4-carboxamide]
< 500 nM	O=C1CCC(Nc2ccc(N3CCC(N4CCC(C(=O)N[C@H]5CC[C@H](Nc6ncc(F)c(-c7cccc(N8CCOCC8=O)c7)n6)CC5)CC4)C(F)C3)c(F)c2)C(=O)N1 (some centres unmarked) [Compound 526, 1′-(4-((2,6-dioxopiperidin-3-yl)amino)-2-fluorophenyl)-3′-fluoro-N-((1r,4r)-4-((5-fluoro-4-(3-(3-oxomorpholino)phenyl)pyrimidin-2-yl)amino)cyclohexyl)-[1,4′-bipiperidine]-4-carboxamide]
< 500 nM	O=C1CCC(Nc2ccc(N3CCN([C@H]4CC[C@H](NC(=O)[C@H]5CC[C@H](Nc6ncc(F)c(-c7cccc(N8CCCCC8)c7)n6)CC5)CC4)CC3)c(F)c2)C(=O)N1 (stereo partly drawn) [Compound 527, trans-(1r,4R)—N-((1r,4R)-4-(4-(4-((2,6-dioxopiperidin-3-yl)amino)-2-fluorophenyl)piperazin-1-yl)cyclohexyl)-4-((5-fluoro-4-(3-(piperidin-1-yl)phenyl)pyrimidin-2-yl)amino)cyclohexane-1-carboxamide]
< 500 nM	O=C1CCC(Nc2ccc(N3CCN(CC4(F)CCN(C(=O)[C@H]5CC[C@H](Nc6ncc(F)c(-c7cccc(-n8ccccc8=O)c7)n6)CC5)CC4)CC3)c(F)c2)C(=O)N1 (stereo partly drawn) [Compound 528, trans-3-((3-fluoro-4-(4-((4-fluoro-1-(4-((5-fluoro-4-(3-(2-oxopyridin-1(2H)-yl)phenyl)pyrimidin-2-yl)amino)cyclohexane-1-carbonyl)piperidin-4-yl)methyl)piperazin-1-yl)phenyl)amino)piperidine-2,6-dione]
